Results on 6 molecules are retold here after paper PMC11763264, “Antibacterial and Antifungal Activities of Linear and Cyclic Peptides Containing Arginine, Tryptophan, and Diphenylalanine” (Antibiotics, 2025).

Converted amounts (≈) assume the structure as drawn. Non-standard residues stand in square brackets, D forms with d. Residues, ends and D or L forms follow the SMILES beside them. Dip = N[C@H](C(=O)O)C(c1ccccc1)c1ccccc1 Where only a bound is given, the exact number is not on record here.

What all share (assay): microbe, parasite or virus in culture
One assay relates to A. fumigatus (Af-293). In kind it is cell-based, Aspergillus fumigatus. The note with it: RPMI 1640 with 2% D-glucose, HEPES, 10^6 cells/mL, 24 and 48 h at 35 °C, no visible growth, triplicates, repeated twice. The procedure: (§1) The antifungal activity of all ten synthesized linear and cyclic peptides was evaluated against C. albicans (ATCC 60193), C. parapsilosis (ATCC 22019), and A. fumigatus (AF-293). Fluconazole and amphotericin B were used as positive controls for this study. The MIC was determined at concentrations in wells with no visible fungal growth.
A. fumigatus (Af-293) was cultured on Sabouraud dextrose agar (SDA) (Lot #3431660, Oxoid) for 48–72 h at 35 °C to obtain fresh and mature colonies which reached the proper sporulation then used to prepare the inoculum. The colonies were covered with Phosphate-Buffered Saline (PBS) containing 0.025% Tween-20, scraped from the plate, and carefully collected into a sterile tube. The suspension was centrifuged at 3000 RPM for 5 min after the separation between conidia and hyphae. The supernatant was discarded, and the pellet was resuspended in 5 mL of PBS.
Peptide concentrations of 50, 25, 12.5, 6.25, and 3.1 μg/mL were tested in triplicate. Each well of a 96-well plate was inoculated with the prepared inoculum suspension, which was diluted with RPMI 1640 medium containing L-glutamine, supplemented with 2% D-glucose, and the pH adjusted using HEPES buffer. The plates were incubated for 50 min at 35 °C to achieve a final cell concentration of 10^6 cells/mL. The control wells contained the same inoculum without any compound. The plates were then incubated for 24 and 48 h at 35 °C. Fungal growth was visualized, and the minimum inhibitory concentration (MIC) was determined as the lowest peptide concentration, where no growth was observed.

The next assay deals with C. albicans (ATCC 60193). In kind it is cell-based, Candida albicans. How it is done:
as §1
(§2) In this study, C. albicans and C. parapsilosis were cultured on Yeast Peptone Dextrose (YPD) agar containing 1% w/v yeast extract, 2% w/v peptone, 2% w/v D-glucose, and 1.5% agar. A single colony from the agar was selected and cultured in Tryptone soy broth supplemented with 0.1% D-glucose, then incubated for 24 h at 37 °C. The cells were washed twice with PBS by centrifugation at 2000 RPM for 5 min. The pellet was resuspended in 5 mL of PBS, diluted in RPMI 1640 with L-glutamine, supplemented with 2% D-glucose, and the pH adjusted using HEPES buffer. The suspension was then incubated for 50 min at 35 °C to achieve a final cell concentration of 10^6 cells/mL.
(§3) Peptide concentrations of 50, 25, 12.5, 6.25, and 3.1 μg/mL were tested in triplicate and repeated twice. Each well of a 96-well plate was inoculated with the prepared inoculum suspension, which was diluted with RPMI media to a final volume of 200 μL per well. The control well received the same inoculum without any compound. The plates were incubated for 24 h at 37 °C. Fungal and microbial growth were visually observed in the control wells, and the minimum inhibitory concentration (MIC) was determined as the lowest concentration at which no growth was detected in the wells. Amphotericin B was used as a standard antifungal drug.

Assay [1] has as its system C. parapsilosis (ATCC 22019). The format is cell-based, Candida parapsilosis. The procedure:
as §1, §2, §3

Assay [2] concerns P. aeruginosa (ATCC 27883). The format is cell-based, Pseudomonas aeruginosa. The note with it: ATCC 27883, 24 h. How it is done:
(§4) The antibacterial activity of all ten synthesized linear and cyclic peptides was evaluated against MRSA (ATCC BAA-1556), S. aureus (ATCC 29213), E. faecium (ATCC 700221), S. pneumoniae (ATCC 51938), E. faecalis (ATCC 29212), B. subtilis (ATCC-6633), K. pneumoniae (ATCC BAA-1705), P. aeruginosa (ATCC 27883), and E. coli (ATCC 25922). Meropenem and daptomycin were used as positive controls for this study. Certain peptides are marked as “NT” (not tested) against specific bacterial strains based on initial screening data. […] The MIC was determined by micro-broth dilution protocol, where the minimal concentrations were determined to be in wells with no visible bacterial growth.
(§5) All bacterial experiments were carried out in a laminar flow hood (Labconco, Kansas City, MO, USA). The bacterial strains were cultured following the guidelines set by the Clinical Laboratory Standards Institute (CLSI). Antibacterial assays were performed using a standard microtiter dilution method as described in previous studies. The minimum inhibitory concentration (MIC) refers to the lowest peptide concentration that inhibits bacterial growth in wells with no visible bacterial growth. MIC was determined by micro-broth dilution. Bacteria were cultured overnight in 6 mL of Luria Broth (LB). A stock solution of the peptide was prepared in water and DMSO, and a test compound solution with a concentration of 256 µg/mL was made in LB. Meropenem, with a solubility of 8 mg/mL, was prepared as a stock solution at 4 mg/500 µL. An aliquot of the overnight bacteria culture was diluted in normal saline (NS, 1 mL) until achieving a 0.5 McFarland turbidity (1.5 × 10^8 bacterial cell CFU/mL). A 0.5 McFarland compared solution (60 µL) was added to Mueller Hinton Broth (MH) 8940 µL to generate a 1/150 dilution. A 200 µL test compound solution was added to the first well of a 96-well plate, and the remaining wells (2–12) were filled with 100 µL of MH media using a multi-channel pipette from a sterile reservoir. A concentration of […] of the tested peptides was prepared from a stock solution of the samples for testing in Muller−Hinton broth MH media. Peptides stock solution was dissolved in 5% DMSO in water, and the final concentration of DMSO in the first well of assay plate was 2.5% DMSO/H2O and diluted across the assay plate.
(§6) A 100 µL sample from well 1 was pipetted into well 2, and the solution was mixed thoroughly by pipetting up and down. Next, 100 µL was transferred from well 2 to well 3, followed by thorough mixing. This 2-fold serial dilution process continued through well 11, with no additions made to well 12. The final 100 µL from well 11 was discarded. After completing the serial dilution, each well (1–12) contained 100 µL of solution. The bacterial culture in MH media was vortexed and transferred to a sterile reservoir, from which 100 µL was added to each well using a 12-channel pipette. (Note: The dilutions were further diluted upon adding the bacterial solution; for example, the concentration in well 1 started at […] after the addition of the bacterial culture.) The plates were incubated overnight at 37 °C for 24 h. All experiments were performed in triplicate and repeated twice, with controls consisting of bacteria in MH media and positive controls of daptomycin or meropenem.

For a further assay, the system named is MRSA (ATCC BAA-1556). The format is cell-based, Methicillin-Resistant Staphylococcus aureus. The note with it: ATCC BAA-1556, 24 h. The procedure:
as §4, §5, §6

A further assay concerns E. coli (ATCC 25922). In kind it is cell-based, Escherichia coli. The note with it: ATCC 25922, 24 h. The procedure: as §4, §5, §6
Assay [3] has as its system K. pneumoniae (ATCC BAA-1705). The format is cell-based, Klebsiella pneumoniae. The note with it: ATCC BAA-1705, 24 h. The procedure:
as §4, §5, §6

Where [4] appears, read: Candida albicans, ATCC60193, RPMI 1640 with 2% D-glucose, HEPES, 10^6 cells/mL, 24 h at 37 °C, no visible growth, triplicates, repeated twice.
Where [5] appears, read: Lodderomyces parapsilosis, ATCC22019, RPMI 1640 with 2% D-glucose, HEPES, 10^6 cells/mL, 24 h at 37 °C, no visible growth, triplicates, repeated twice.

Take `C[C@@H]1[C@H](O)[C@@H](C)/C=C/C=C/C=C/C=C/C=C/C=C/C=C/[C@H](O[C@@H]2O[C@H](C)[C@@H](O)[C@H](N)[C@@H]2O)C[C@@H]2O[C@](O)(C[C@@H](O)C[C@@H](O)[C@H](O)CC[C@@H](O)C[C@@H](O)CC(=O)O[C@H]1C)C[C@H](O)[C@H]2C(=O)O` [Amphotericin B, reference compound]: the MIC with A. fumigatus (Af-293) (Aspergillus fumigatus) turned out to be 0.84 µM (≈ 0.776 µg/mL); against C. albicans (ATCC 60193) (setting [4]), 0.42 µM (≈ 0.388 µg/mL); in assay [1] (setting [5]), 0.42 µM (≈ 0.388 µg/mL).

`OC(Cn1cncn1)(Cn1cncn1)c1ccc(F)cc1F` [Fluconazole, reference compound]: the MIC with A. fumigatus (Af-293) (Aspergillus fumigatus) is > 209 µM; with A. fumigatus (Af-293) it was >209 µM; against C. albicans (ATCC 60193) (setting [4]) it was 4.9 µM (≈ 1.5 µg/mL); in assay [1] (setting [5]), 3.3 µM (≈ 1.01 µg/mL).

For the molecule `N=C(N)NCCC[C@@H]1NC(=O)[C@H](Cc2c[nH]c3ccccc23)NC(=O)[C@H](CCCNC(=N)N)NC(=O)[C@H](Cc2c[nH]c3ccccc23)NC(=O)[C@H](CCCNC(=N)N)NC(=O)[C@H](C(c2ccccc2)c2ccccc2)NC(=O)[C@H](CCCNC(=N)N)NC(=O)[C@H](C(c2ccccc2)c2ccccc2)NC(=O)[C@H](CCCNC(=N)N)NC(=O)[C@H](Cc2c[nH]c3ccccc23)NC1=O` [[(DipR)2(WR)3]] (cyclo([Dip]R[Dip]RWRWRWR)), the MIC in assay [2] stood at 25 µM (≈ 44.7 µg/mL); in the assay on A. fumigatus (Af-293), 1.7 µM (≈ 3.04 µg/mL); against C. albicans (ATCC 60193) (ATCC 60193, 24 h) it was 7.0 µM (≈ 12.5 µg/mL); in assay [1] (ATCC 22019, 24 h), 7.0 µM (≈ 12.5 µg/mL); in the assay with MRSA (ATCC BAA-1556), 3.1 µM (≈ 5.54 µg/mL); against E. coli (ATCC 25922), 12.5 µM (≈ 22.3 µg/mL). For the same molecule, the MIC in assay [3] is on record as 12.5 µM (≈ 22.3 µg/mL).

For the molecule `N=C(N)NCCC[C@@H]1NC(=O)[C@H](Cc2c[nH]c3ccccc23)NC(=O)[C@H](CCCNC(=N)N)NC(=O)[C@H](C(c2ccccc2)c2ccccc2)NC(=O)[C@H](CCCNC(=N)N)NC(=O)[C@H](C(c2ccccc2)c2ccccc2)NC(=O)[C@H](CCCNC(=N)N)NC(=O)[C@H](C(c2ccccc2)c2ccccc2)NC(=O)[C@H](CCCNC(=N)N)NC(=O)[C@H](Cc2c[nH]c3ccccc23)NC1=O` [[(DipR)3(WR)2]] (cyclo([Dip]R[Dip]R[Dip]RWRWR)), the MIC in assay [2] is given as 25 µM (≈ 45.6 µg/mL); in the assay on A. fumigatus (Af-293) it was 1.7 µM (≈ 3.1 µg/mL); against C. albicans (ATCC 60193) (ATCC 60193, 24 h), 6.8 µM (≈ 12.4 µg/mL); in assay [1] (ATCC 22019, 24 h), 6.8 µM (≈ 12.4 µg/mL); in the assay with MRSA (ATCC BAA-1556), 3.1 µM (≈ 5.65 µg/mL); in the assay on E. coli (ATCC 25922), 12.5 µM (≈ 22.8 µg/mL). This molecule also showed an MIC in assay [3] of 12.5 µM (≈ 22.8 µg/mL).

With `N=C(N)NCCC[C@@H]1NC(=O)[C@H](Cc2c[nH]c3ccccc23)NC(=O)[C@H](CCCNC(=N)N)NC(=O)[C@H](C(c2ccccc2)c2ccccc2)NC(=O)[C@H](CCCNC(=N)N)NC(=O)[C@H](C(c2ccccc2)c2ccccc2)NC(=O)[C@H](CCCNC(=N)N)NC(=O)[C@H](C(c2ccccc2)c2ccccc2)NC(=O)[C@H](CCCNC(=N)N)NC(=O)[C@H](C(c2ccccc2)c2ccccc2)NC1=O` [[(DipR)4(WR)]] (cyclo([Dip]R[Dip]R[Dip]R[Dip]RWR)), the MIC in assay [2] is on record as 25 µM (≈ 46.5 µg/mL); with A. fumigatus (Af-293) it was 1.7 µM (≈ 3.16 µg/mL); in the assay on C. albicans (ATCC 60193) (ATCC 60193, 24 h), 6.7 µM (≈ 12.5 µg/mL); in assay [1] (ATCC 22019, 24 h), 6.7 µM (≈ 12.5 µg/mL); against MRSA (ATCC BAA-1556), 3.1 µM (≈ 5.77 µg/mL); with E. coli (ATCC 25922), 12.5 µM (≈ 23.3 µg/mL). In assay [3], this molecule came in with an MIC of 25 µM (≈ 46.5 µg/mL).

For the molecule `N=C(N)NCCC[C@@H]1NC(=O)[C@H](Cc2c[nH]c3ccccc23)NC(=O)[C@H](CCCNC(=N)N)NC(=O)[C@H](Cc2c[nH]c3ccccc23)NC(=O)[C@H](CCCNC(=N)N)NC(=O)[C@H](C(c2ccccc2)c2ccccc2)NC(=O)[C@H](CCCNC(=N)N)NC(=O)[C@H](Cc2c[nH]c3ccccc23)NC(=O)[C@H](CCCNC(=N)N)NC(=O)[C@H](Cc2c[nH]c3ccccc23)NC1=O` [[(DipR)(WR)4]] (cyclo([Dip]RWRWRWRWR)), the MIC in assay [2] worked out at 25 µM (≈ 43.7 µg/mL); against A. fumigatus (Af-293) it was 1.8 µM (≈ 3.15 µg/mL); with C. albicans (ATCC 60193) (ATCC 60193, 24 h), 14.3 µM (≈ 25 µg/mL); in assay [1] (ATCC 22019, 24 h) it was 7.1 µM (≈ 12.4 µg/mL); with MRSA (ATCC BAA-1556) it was 3.1 µM (≈ 5.42 µg/mL); with E. coli (ATCC 25922) it was 12.5 µM (≈ 21.9 µg/mL). The MIC in assay [3] worked out at 12.5 µM (≈ 21.9 µg/mL).
